Measurements taken from PubChem BioAssay (NCI).
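96-well plates; 48 h exposure; 5 concentrations. Endpoints by linear interpolation between flanking doses. Not reached: highest tested concentration assigned. Definition used: TGI = concentration required for complete inhibition of growth.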

Assays:
Experiment in all cases: growth of human tumour cells (NCI), 48 h
[1] = system: COLO 205 colon
[2] = system: SN12C renal
[3] = system: SNB-75 CNS
[4] = system: IGROV1 ovarian
[5] = system: OVCAR-3 ovarian
[6] = system: MCF7 breast
[7] = system: T-47D breast
[8] = system: SF-295 CNS
[9] = system: SF-268 CNS
[10] = system: UACC-257 melanoma
[11] = system: M14 melanoma
[12] = system: SW-620 colon
[13] = system: OVCAR-4 ovarian
[14] = system: ACHN renal
[15] = system: HT29 colon
[16] = system: NCI-H522 lung
[17] = system: HS 578T breast
[18] = system: MDA-MB-231 breast
[19] = system: HCT-15 colon
[20] = system: UACC-62 melanoma
[21] = system: OVCAR-5 ovarian
[22] = system: CAKI-1 renal
[23] = system: MALME-3M melanoma
[24] = system: DU-145 prostate
[25] = system: NCI-H23 lung
[26] = system: KM12 colon
[27] = system: HL-60(TB) leukemia
[28] = system: MDA-MB-435
[29] = system: MDA-N
[30] = system: SK-OV-3 ovarian
[31] = system: MOLT-4 leukemia
[32] = system: SK-MEL-5 melanoma
[33] = system: UO-31 renal
[34] = system: HCC-2998 colon
[35] = system: SK-MEL-28 melanoma
[36] = system: HCT-116 colon
[37] = system: NCI-H460 lung
[38] = system: SR leukemia
[39] = system: NCI/ADR-RES ovarian
[40] = system: BT-549 breast
[41] = system: SK-MEL-2 melanoma
[42] = system: TK-10 renal
[43] = system: SNB-19 CNS
[44] = system: A498 renal
[45] = system: A549 NSCLC
[46] = system: HOP-92 NSCLC
[47] = system: U251 CNS
[48] = system: PC-3 prostate
[49] = system: OVCAR-8 ovarian
[50] = system: SF-539 CNS
[51] = system: CCRF-CEM leukemia
[52] = system: EKVX NSCLC
[53] = system: RXF 393 renal
[54] = system: RPMI-8226 leukemia
[55] = system: 786-0 renal
[56] = system: K-562 leukemia
[57] = system: HOP-62 NSCLC
[58] = system: NCI-H226 lung

Measured: TGI

O=S(=O)(c1ccccc1)[C@H]1[C@@H]2O[C@@H]2C[C@@H]1O
> 100 µM: all assays above

Clc1ccc(-c2noc(CN3CCCCC3)n2)cc1
> 100 µM: all assays above
